Reference: ChEMBL document CHEMBL1201862, “PubChem BioAssay data set” (2004)
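Each compound was tested at five concentrations against cells in 96-well plates for 48 hours. Abbreviation: GI50, concentration required for 50% inhibition of growth.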 The source made the active and inactive calls. Rule as the data show it: active = GI50 up to about 1.1 µM and inactive = higher.

What was measured:
Test in all cases: inhibition of tumour cell growth, NCI panel, 48 h
[1] = system: A498
[2] = system: A549
[3] = system: CAKI-1
[4] = system: CCRF-CEM
[5] = system: COLO 205
[6] = system: DU-145
[7] = system: HCC 2998
[8] = system: HCT-116
[9] = system: HOP-92
[10] = system: M14
[11] = system: MDA-MB-231
[12] = system: NCI-H460
[13] = system: OVCAR-3
[14] = system: OVCAR-5
[15] = system: PC-3
[16] = system: SK-MEL-28
[17] = system: SK-MEL-2
[18] = system: SK-MEL-5
[19] = system: SR
[20] = system: SW-620

Compound	GI50 [1]	GI50 [2]	GI50 [3]	GI50 [4]	GI50 [5]	GI50 [6]	GI50 [7]	GI50 [8]	GI50 [9]	GI50 [10]	GI50 [11]	GI50 [12]	GI50 [13]	GI50 [14]	GI50 [15]	GI50 [16]	GI50 [17]	GI50 [18]	GI50 [19]	GI50 [20]
Oc1ccc(Cl)cc1Cc1cc(Cl)cc(Cc2cc(Cl)ccc2O)c1O	1.46 µM (inactive)	2.83 µM (inactive)	2.48 µM (inactive)	1.47 µM (inactive)	1.76 µM (inactive)	2.96 µM (inactive)	0.836 µM (active)	2.28 µM (inactive)	1.26 µM (inactive)	2.39 µM (inactive)	2.53 µM (inactive)	1.77 µM (inactive)	2.24 µM (inactive)	3.17 µM (inactive)	2.45 µM (inactive)	3.24 µM (inactive)	2.61 µM (inactive)	1.11 µM (active)	2.82 µM (inactive)	3.29 µM (inactive)
Cc1sc2nc(-c3ccc([N+](=O)[O-])cc3)c(/C=N/N=C(N)N)n2c1C	1.87 µM (inactive)	1.45 µM (inactive)	2.07 µM (inactive)	0.206 µM (active)	0.251 µM (active)	1.27 µM (inactive)	0.175 µM (active)	0.173 µM (active)	1.33 µM (inactive)	0.67 µM (active)	0.28 µM (active)	1.75 µM (inactive)	1.75 µM (inactive)	1.36 µM (inactive)	1.28 µM (inactive)	0.361 µM (active)	0.457 µM (active)	1.38 µM (inactive)	0.217 µM (active)	0.195 µM (active)
c1ccc(/C(=N/Nc2ccccn2)c2ncccn2)cc1	> 100 µM (inactive)	3.62 µM (inactive)	0.0528 µM (active)	< 0.0183 µM (active)	< 0.0139 µM (active)	3.99 µM (inactive)	> 30 µM (inactive)	0.524 µM (active)	2.96 µM (inactive)	0.386 µM (active)	0.55 µM (active)	0.906 µM (active)	0.386 µM (active)	2.77 µM (inactive)	9.16 µM (inactive)	3.93 µM (inactive)	> 28 µM (inactive)	0.745 µM (active)	0.929 µM (active)	0.0982 µM (active)
NC(=O)ON=C1CCN(Cc2ccccc2)CC1	> 100 µM (inactive)	> 100 µM (inactive)	> 100 µM (inactive)	> 100 µM (inactive)	> 100 µM (inactive)	> 100 µM (inactive)	> 100 µM (inactive)	> 100 µM (inactive)	> 100 µM (inactive)	> 100 µM (inactive)	> 100 µM (inactive)	> 100 µM (inactive)	> 100 µM (inactive)	> 100 µM (inactive)	> 100 µM (inactive)	> 100 µM (inactive)	> 100 µM (inactive)	> 100 µM (inactive)	> 100 µM (inactive)	> 100 µM (inactive)
C[C@H]1[C@H](C)N1CC(O)Cn1ccnc1[N+](=O)[O-] (stereo not given in full)	> 100 µM (inactive)	> 100 µM (inactive)	> 100 µM (inactive)	> 91.6 µM (inactive)	> 100 µM (inactive)	> 100 µM (inactive)	> 100 µM (inactive)	> 100 µM (inactive)	1 µM (active)	> 100 µM (inactive)	> 100 µM (inactive)	> 100 µM (inactive)	> 100 µM (inactive)	> 100 µM (inactive)	> 100 µM (inactive)	> 100 µM (inactive)	> 100 µM (inactive)	> 100 µM (inactive)	> 100 µM (inactive)	> 100 µM (inactive)
CC(C)OP(=O)(OC(C)C)/C(C#N)=C/c1c[nH]c2ccccc12	> 100 µM (inactive)	> 100 µM (inactive)	> 100 µM (inactive)	35.6 µM (inactive)	88.9 µM (inactive)	> 100 µM (inactive)	> 100 µM (inactive)	> 100 µM (inactive)	36.8 µM (inactive)	60.7 µM (inactive)	> 100 µM (inactive)	> 100 µM (inactive)	34 µM (inactive)	> 100 µM (inactive)	67.6 µM (inactive)	> 100 µM (inactive)	> 100 µM (inactive)	51.3 µM (inactive)	68.1 µM (inactive)	> 100 µM (inactive)
O=C(c1ccco1)N(Cc1cccnc1)C(=S)N(Cc1cccnc1)C(=O)c1ccco1	25.7 µM (inactive)	20.5 µM (inactive)	19.9 µM (inactive)	2.74 µM (inactive)	4.02 µM (inactive)	19.5 µM (inactive)	17.5 µM (inactive)	7.67 µM (inactive)	17.7 µM (inactive)	12.9 µM (inactive)	8.75 µM (inactive)	22.6 µM (inactive)	6.35 µM (inactive)	23.7 µM (inactive)	6.19 µM (inactive)	20.1 µM (inactive)	12.5 µM (inactive)	14.6 µM (inactive)	5.28 µM (inactive)	5 µM (inactive)
